In paper PMC10223822, “Identification of the Hepatic Metabolites of Flumazenil and their Kinetic Application in Neuroimaging” (Pharmaceuticals, 2023):

Experiments:
[1] = Flumazenil biotransformation in rat liver homogenate (HPLC-DAD/tandem MS); type: in vitro ADME
Procedure: (§1) The quantification of flumazenil metabolism by hepatic enzymes was performed using HPLC (Agilent 1100 series, Palo Alto, CA, USA), which is comprised of an online degasser, a binary pump, an auto sampler, a thermostat column oven (maintained at 25 °C), and a diode array detector (DAD, 250 nm). Data were acquired and processed using the Agilent ChemStation software (ed. 10.02). Separation was achieved using a C18 column with a guard column and an ammonium acetate buffer–acetonitrile gradient elution. The mobile phase consisted of eluents A (5 mM ammonium acetate aqueous buffer with 1% ACN, pH 7.0) and B (ACN only) at a flow rate of 0.6 mL min^−1. These were mixed to separate the metabolites and flumazenil from the sample matrices, according to the gradient program shown in Table 1. The overall LC time for flumazenil biotransformation was 15 min. An analyte solution of 5 µL was injected using an auto-sampler thermostat at 4 °C.
(§2) Mass spectrometric analysis of flumazenil in ACN was initially conducted on a 4000 QTrap LC-MS/MS system using API Analyst software 1.4.1 (AB Sciex, Concord, ON, Canada) to obtain the appropriate MS parameters and m/z for flumazenil fragments. Samples were introduced into the spectrometer, either by the HPLC system (Agilent 1100) or by a syringe pump, at a flow rate of 10 µL min^−1 (Harvard Apparatus Inc., Holliston, MA, USA). Chromatographic separation was conducted as described in the HPLC conditions section. The analytes were ionized by a turbo spray ion source (electrospray ionization, [ESI]) in the positive-ion mode at 5000 V and 350 °C. Mass spectra were recorded within a range of 100–1000 amu with unit resolutions of Q1 and Q3. The LC-tandem MS determination of flumazenil concentration was conducted in the multiple reaction monitoring positive-ion mode with transition ion pairs 304 → 258 and 304 → 276. Vaporized liquid nitrogen gas was used as the nebulizer, curtain, and collision gas in all 4000 QTrap LC–MS/MS studies.
Normal rat livers were obtained from healthy male SD rats weighing 400–450 g. […]

[2] = Flumazenil metabolization in rat liver microsomes (LC-DAD/tandem MS); type: in vitro ADME
Procedure: as §1
as §2, with “Vaporized liquid nitrogen gas was used as the nebulizer, curtain, and collision gas in all 4000 QTrap LC–MS/MS studies.” left out
Incubation solutions were prepared according to the manufacturer’s instructions. […] The supernatants were filtered through a 0.22 µm PVDF disk filter and analyzed using LC-DAD and tandem MS. […]

[3] = In vitro serum stability of [18F]flumazenil (radio-TLC); settings: for Radiochemical Purity (RCP, %) in serum: rat serum, 37 °C
Procedure: Serum preparation: healthy SD rats were deeply anesthetized with isoflurane gas (3% isoflurane in 50% oxygen, 1 mL/min). One milliliter of whole blood from healthy SD rats was withdrawn through the tail vein at room temperature and centrifuged at 3000 rpm for 10 min to obtain the prepared serum for stability testing.

[4] = Radiochemical stability of [18F]flumazenil in 30% ethanol after end of synthesis; type: physicochemical; settings: amber glass vial, room temperature, 8 h after end of synthesis (EOS)

## COC(=O)c1ncn2c1CN(C)C(=O)c1cc(F)ccc1-2 [Metabolite M1]
[1]; flumazenil incubated in rat liver homogenate 0–250 min
  M1 formation: relatively low amount

## CN1Cc2c(C(=O)O)ncn2-c2ccc(F)cc2C1=O [Metabolite M2]
[2]; up to 120 min incubation
  peak area of M2 increased by: 72%

## CN1Cc2c(C(=O)OCCO)ncn2-c2ccc(F)cc2C1=O [Metabolite M3]
[2]; up to 120 min incubation
  change of peak area of M3: No significant increase

## CCOC(=O)c1ncn2c1CN(C)C(=O)c1cc([18F])ccc1-2 [[^18F]flumazenil]
[3]; 0 min
  Radiochemical Purity (RCP, %) in serum: 95.76%
[3]; 5 min
  Radiochemical Purity (RCP, %) in serum: 93.28%
[3]; 10 min
  Radiochemical Purity (RCP, %) in serum: 91.07%
[3]; 30 min
  Radiochemical Purity (RCP, %) in serum: 87.46%
[3]; 60 min
  Radiochemical Purity (RCP, %) in serum: 85.68%
[3]; 120 min
  Radiochemical Purity (RCP, %) in serum: 79.95%
[3]; 240 min
  Radiochemical Purity (RCP, %) in serum: 72.13%
[3]; up to 1 h of incubation, regular conditions
  intact [18F]flumazenil in serum: > 85%
[4]
  radiochemical purity in 30% ethanol: > 90%
[1]; after 30 min, as worded in conclusions
  biotransformed metabolites in metabolism analysis: about 50%

## CCOC(=O)c1ncn2c1CN(C)C(=O)c1cc(F)ccc1-2 [flumazenil, ethyl 8-fluoro-5-methyl-6-oxo-5,6-dihydro-4H-benzo[f]imidazo [1,5-a] [1, 4]diazepine-3-carboxylate]
[2]; 120 min incubation
  flumazenil detected, of the initial amount: approximately 22%
[1]; rat liver homogenate, 37 °C, 4 h (240 min)
  parent drug biotransformed (parent peak area): approximately 65%
